Source: US5726041A, “Method for detecting a receptor-ligand complex using a cytochrome P450 reporter gene” (priority 1996, dated 1998)
Read-outs that look alike come from different tables or passages of the source.

How the values were obtained:
hPPAR = molecular target: T1, hPPAR (Homo sapiens, UniProt Q07869); assay: cell-based; settings: 1.1 mM clofibrate vs basal
T1 sequence (Q07869 1-468): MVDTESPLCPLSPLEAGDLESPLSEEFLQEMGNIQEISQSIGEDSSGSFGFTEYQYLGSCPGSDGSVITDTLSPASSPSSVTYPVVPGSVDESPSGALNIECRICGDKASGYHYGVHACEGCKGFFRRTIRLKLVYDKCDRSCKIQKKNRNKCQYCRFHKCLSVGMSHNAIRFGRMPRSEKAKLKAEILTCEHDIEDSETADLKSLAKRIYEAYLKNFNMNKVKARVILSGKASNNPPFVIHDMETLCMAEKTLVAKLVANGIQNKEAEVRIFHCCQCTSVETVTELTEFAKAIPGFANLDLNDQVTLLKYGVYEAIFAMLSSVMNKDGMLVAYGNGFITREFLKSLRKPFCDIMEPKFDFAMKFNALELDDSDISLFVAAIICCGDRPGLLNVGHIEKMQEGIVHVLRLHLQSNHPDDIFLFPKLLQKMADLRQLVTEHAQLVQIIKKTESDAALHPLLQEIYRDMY
Description: (§1) MMTV-LTR1 is native, MMTV-LTR2 is minus CpG, MMTV-LTR3 is TATA only. Orientation is relative to reporter. CH activity is pmole per 10^6 cell min. Assuming the cells double every 24 hours, the maximium cell density is 2×10^6 cells per ml, using the log average cell concentration for each day of exposure. Earliest post fusion-values were used. […] It is merely a concentration in the monotonic portion of the dose response curve which has been used consistently in many experiments.

AHH-1 TK± cells = tested on: AHH-1 TK± cells
Source text: The reporter gene expression as reported in previous tables and figures is expressed as pmoles product/well in a 96 well microtiter plate as measured fluorometrically. […] A toxicity curve reflecting the relative number of cells/well present at the end of treatment was obtained as a function of chemical concentration. […] This suppression can be corrected for by determining the cell concentration in the well or by determining the suppression of CH activity in a cell line which constitutively expresses the reporter.

[1] = tested on: PPARα/GR chimeric receptors
Description: (§2) Cells containing chimeric receptors for the rat, mouse and human PPARα ligand binding domain and rat GR DNA binding domain, as well as control cells, were examined for CH induction by clofibrate in the presence of LPS and spironolactone during clofibrate treatment. Incubations contained 5 ug/ml E. coli lipopolysaccharide and 10 uM spironolactone and were uncorrected for cell progression. Incubations were performed under the same conditions as described above. […] Cells were grown in a volume of 0.2 ml in the wells of a 96 well microtiter plate from an initial cell density of 5×10^5 cells per ml. […] The T194, T194/T144 and T194/EH#7 cell lines contain the mouse PPARα cDNA.

mouse PPARα = molecular target: T2, mouse PPARα (Mus musculus, UniProt P23204); assay: Native PPARα / PPRE CYP2A6 reporter, coumarin 7-hydroxylase induction; settings: for fold induction at 1100 µM: 1.1 mM clofibrate vs basal; for maximal fold induction: read-out: Maximum Fold Induction, clofibrate-induced CYP2A6 activity
T2 sequence (P23204 1-468): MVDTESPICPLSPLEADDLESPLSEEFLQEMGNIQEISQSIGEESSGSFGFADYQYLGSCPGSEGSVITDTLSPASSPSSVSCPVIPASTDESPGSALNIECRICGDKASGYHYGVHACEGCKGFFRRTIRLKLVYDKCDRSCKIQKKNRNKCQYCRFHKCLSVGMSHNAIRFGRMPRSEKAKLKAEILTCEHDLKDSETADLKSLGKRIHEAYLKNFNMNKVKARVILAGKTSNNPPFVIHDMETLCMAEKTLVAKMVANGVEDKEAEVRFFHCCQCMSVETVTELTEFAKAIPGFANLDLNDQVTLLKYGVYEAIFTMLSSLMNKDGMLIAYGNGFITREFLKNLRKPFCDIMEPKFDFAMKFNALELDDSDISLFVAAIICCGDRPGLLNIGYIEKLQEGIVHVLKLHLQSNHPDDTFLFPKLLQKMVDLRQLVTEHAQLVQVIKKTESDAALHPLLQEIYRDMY
Description: as §1
The comparison was performed by incubating 0.2 ml cells for 3 days in the wells of a microtiter plate at an initial cell concentration of 5×10^5 cells per ml in the presence of increasing amounts of inducer and 50 uM coumarin.
(§3) In this test we used an initial cell concentration of 2 million cells/ml contained in 0.2 ml culture medium per well of a 96 well microtiter plate. Coumarin (0.05 mM) and clofibrate (concentration was an experimental variable) were added at the beginning of the incubation time. Cells were incubated for 3 days and the 7-hydroxycoumarin content in the wells was analyzed by fluorescence with excitation at 360 nm and emission at 460 nm using a Cytofluor 2350 (Millipore). […] The elevation in pH increases 7-hydroxycoumarin fluorescence by increasing the proportion of the fluorochrome which is ionized. Quantitation was achieved by comparison to a 7-hydroxycoumarin standard curve.
The ACO-PPRE constructs were centrifuged and resuspended at a density of 2 million cells per milliliter in RPMI media with 9% horse serum. One hundred microliters of the cell suspension was distributed into a total of four rows, two rows being at the opposite end of a 96 well microtiter plate. One set was labeled as clofibrate and the other set was labeled as the blank. Clofibrate was then added at concentration of 3 mM, 2 mM, 1 mM, 0.5 mM & 0 mM to the appropriate wells. Stock concentration of clofibrate was 50 mM in 75 mM NaOH. One hundred microliters of media containing 100 micromolar coumarin was then added to the clofibrate containing wells. The negative control contained cell suspension and 100 uM coumarin only. The plates were placed at […] for three days. In a distinct set of wells, one hundred microliters of hydroxy-coumarin standard was placed in two rows The concentrations are in units of pmoles and the values are: 1250, 625, 313, 156, 78, 39, 19.5 & 0. At the end of the three day incubation period, one hundred microliters of media containing 100 uM coumarin was added to the wells labeled as blank. Next 0.1M Tris pH 9.0 was distributed to the contents of each well. Fluorescence was analyzed with a cytofluor 2350 (Millipore) with excitation at 360 nm and emission at 460 nm (both filters with a 40 nm bandwidth). The net fluorence was calculated by subtracting the fluorescence of the blank wells from the fluorescence of the test wells for each clofibrate concentration. Conversion to pmole product per well was accomplished by comparison to the fluorescence of the standards. The responsiveness of the different constructs to clofibrate induction was measured immediately after viable, hygromycin resistant cells were obtained and periodically thereafter in order to evaluate the stability of the system. The data were graphed as the fold induction relative to the without clofibrate control incubation. This is a measure of the responsiveness of the system and corrects for differences in the negative control values for the different reporter constructs.

[2] = tested on: reporter construct without PPARα; assay: CYP2A6 reporter in control cells without PPARα or chimeric receptor; settings: for fold induction at 1100 µM: Homo sapiens, 1.1 mM clofibrate vs basal
Description: as §2, §1
The above-described assay conditions were used and the results were normalized to the respective basal expression levels.
as §3

For `CCOC(=O)C(C)(C)Oc1ccc(Cl)cc1` [clofibrate], the fold induction at 1100 µM (hPPAR; read-out: Coumarin Hydroxylase Activity Induced (Fold), cell line T248 (HSVtk 3'-5' hPPAR; HSVtk-OCT, JCO, HSVtkL15)) was 0.9, the fold induction at 1100 µM (hPPAR; read-out: Coumarin Hydroxylase Activity Induced (Fold), cell line T249 (HSVtk 3'-5' hPPAR; HSVtk-OCT, JCO, HSVtkL15)) was 1.1 and the “difference in toxicity among cell lines” value (AHH-1 TK± cells) was “No differences in toxicity”. The “toxicity to the cells” value (AHH-1 TK± cells) was “toxic”, the “7-hydroxycoumarin production by cell lines containing the chimeras” value [1] was “very small but detectable, concentration-dependent increase” and the “CYP2A6-catalyzed coumarin 7-hydroxylase activity upon treatment of the cells” value (mouse PPARα) was “concentration dependent increase”. The “clofibrate-induced activity relative to background levels” value (mouse PPARα) was 3 to 10 times, the “fold induction after growth in exponential cell culture” value (mouse PPARα) was “about 2 fold” and the “fold induction, initial” value (mouse PPARα) was 4 to 6 fold. For the same compound, the “increase in CYP2A6 expression after exposure to clofibrate” value (mouse PPARα) was “greater than 10 fold”, the “potency rank on a molar basis” value (mouse PPARα) was “then clofibrate” and the “ranking of chemicals of known ability to induce peroxisome proliferation” value (mouse PPARα) was “correctly rank”. The “reporter gene expression, concentration response” value (mouse PPARα) was “concentration-dependent increases”, the signal-to-noise ratio (mouse PPARα) was “about 10” and the fold induction at 1100 µM (mouse PPARα; read-out: Coumarin Hydroxylase Activity Induced (Fold), cell line 7.10/T225, receptor orientation 3'-5' (HSVtk mPPAR; SV40, JCO, HSVtk#7)) was 0.9. The fold induction at 1100 µM (mouse PPARα; read-out: Coumarin Hydroxylase Activity Induced (Fold), cell line 7.3/T225, receptor orientation 3'-5' (HSVtk mPPAR; SV40, JCO, HSVtk#7)) was 0.9, the fold induction at 1100 µM (mouse PPARα; read-out: Coumarin Hydroxylase Activity Induced (Fold), cell line 7.3/T225, receptor orientation 5'-3' (HSVtk mPPAR; SV40, JCO, HSVtk#7)) was 1.5 and the fold induction at 1100 µM (mouse PPARα; read-out: Coumarin Hydroxylase Activity Induced (Fold), cell line T194 (SV40 3'-5' mPPAR; HSVtk-OCT, ACO, HSVtkL15)) was 1.5. For the same compound, the fold induction at 1100 µM (mouse PPARα; read-out: Coumarin Hydroxylase Activity Induced (Fold), cell line T194/HSVtk#7 (SV40 3'-5' mPPAR; SV40, ACO, HSVtk#7)) was 3.3, the fold induction at 1100 µM (mouse PPARα; read-out: Coumarin Hydroxylase Activity Induced (Fold), cell line T194/T144 (SV40 3'-5' mPPAR; SV40, ACO, MMTV-LTR3)) was 1.2 and the fold induction at 1100 µM (mouse PPARα; read-out: Coumarin Hydroxylase Activity Induced (Fold), cell line T247 (HSVtk 3'-5' mPPAR; HSVtk-OCT, JCO, HSVtkL15)) was 1.2. The maximal fold induction (mouse PPARα; high copy number reporter, vector T144/194, clone 6-1, sequential independent determinations) was 1.57, the maximal fold induction (mouse PPARα; high copy number reporter, vector T144/194, clone 6-3, sequential independent determinations) was 1.17 and the maximal fold induction (mouse PPARα; high copy number reporter, vector T144/194, clone 6-4) was 1.36. For the same compound, the maximal fold induction (mouse PPARα; high copy number reporter, vector T194EH#7, clone 8-1) was 1.04, the maximal fold induction (mouse PPARα; high copy number reporter, vector T194EH#7, clone 8-5, sequential independent determinations) was 1.27 and the maximal fold induction (mouse PPARα; high copy number reporter, vector T194EH#7, clone 8-11) was 1.15. For the same compound, the maximal fold induction (mouse PPARα; high copy number reporter, vector T194EH#7, clone 8-12) was 1.21, the maximal fold induction (mouse PPARα; high copy number reporter, vector T194EH#7, clone 8-14) was 1.15 and the maximal fold induction (mouse PPARα; vector T194EH#7, clone 8-6 (probably no functional high copy reporter)) was 3.44. The maximal fold induction (mouse PPARα; vector T194EH#7, clone 8-16 (probably no functional high copy reporter)) was 3.73, the “7-hydroxycoumarin production in control cells” value [2] was “No increase” and the “clofibrate induction of CH activity in cells containing the reporter alone” value [2] was “did not respond”. For the same compound, the “induction of 7-hydroxycoumarin production in the absence of the PPARα” value [2] was “no induction”, the fold induction at 1100 µM ([2]; read-out: Coumarin Hydroxylase Activity Induced (Fold), cell line T192 (no receptor; HSVtk-OCT, ACO, HSVtkL15)) was 0.8 and the fold induction at 1100 µM ([2]; read-out: Coumarin Hydroxylase Activity Induced (Fold), cell line T192/T144 (no receptor; HSVtk-OCT, ACO, MMTV-LTR3)) was 0.7. The fold induction at 1100 µM ([2]; read-out: Coumarin Hydroxylase Activity Induced (Fold), cell line T245 (no receptor; HSVtk-OCT, JCO, HSVtkL15)) was 0.9.
